Measured values: patent publication US20220128542A1, “TREATMENT EFFICIENCY EVALUATION” (TX MEDIC AB, priority 2019, published 2022)

Tested on: brain of rats subjected to closed-head diffuse severe TBI (sTBI)
Test: HPLC of energy metabolites, antioxidants and oxidative/nitrosative stress biomarkers in brain, dose study after sTBI (Example 3)
Assay type: in vivo, rat
From the text: Male Wistar rats (n=160) of 300-350 g body weight were used in this study.
1994, 80: 291-300. This model causes diffuse axonal injury and it is able to reproduce the physical and mechanical characteristics of the diffuse TBI in humans.
Rats were placed prone on a bed of specific polyurethane foam inserted in a special container. This foam dissipates the major part of the potential energy (deriving from the mechanical forces) and prevents any rebound of the animal after the impact that could produce spinal damages.
These time points are coincident with the worst biochemical derangement (2 days) or, in the case of a mildly injured brain, with a full metabolic recovery (7 days).
The drug treatment consisted in a subcutaneous injection of 0.5 ml of LMW-DS (Tikomed) and administered at 3 different concentrations (1, 5 and 15 mg/kg body weight), according to the schematic protocol described below.
Sham-operated animals underwent the same procedure of anesthesia but TBI and were used as the control group.
Rats used in this study were divided into 4 groups in order to carry out a study on the efficacy of three different concentrations of LMW-DS at two different times post TBI. As subsequently specified, in each group there were animals subjected to a specific treatment for metabolic analyses and other animals intended to histo-morphological studies, according to the procedures described below.
Rats subjected to sTBI and receiving a single administration of LMW-DS after 30 minutes post-TBI, with sacrifice at 2 days post-TBI. Animals were divided in the following subgroups:
Rats subjected to sTBI and receiving a single administration of LMW-DS after 30 minutes post-TBI, with sacrifice at 7 days post-TBI. Animals were divided in the following subgroups:
Rats (n=12) subjected to sTBI and receiving repeated administrations of the maximal dose of LMW-DS (15 mg/kg b.w.) after 30 minutes, 3 days and 5 days post-TBI, with sacrifice at 7 days post-TBI. Four additional rats were used for the histo-morphological studies. Total rats in this group: n=16
To minimize metabolite loss, an in vivo craniectomy was performed in all animals during anesthesia. The rat skull was carefully removed, the brain was exposed, sharply cut along the sagittal fissure and the two hemispheres were separated. The hemispheres dedicated to biochemical analyses were freeze-clamped by aluminum tongues pre-cooled in liquid nitrogen and then immersed in liquid nitrogen. The freeze-clamping procedure was introduced to accelerate freezing of the tissue, thus minimizing potential metabolite loss.
Tissue homogenization for metabolite analyses was effected as described below. After the wet weight (w.w.) determination, the frozen hemispheres were placed into 7 ml of ice-cold, nitrogen-saturated, precipitating solution (1:10 w/v) composed by CH3CN+10 mM KH2PO4, pH 7.40, (3:1; v:v), and the homogenization was performed using an Ultra-Turrax homogenizer set at 24,000 rpm/min (Janke & Kunkel, Staufen, Germany). After centrifugation at 20,690×g, for 10 min at 4° C., the clear supernatants were saved, pellets were supplemented with an aliquot of 10 mM KH2PO4 and homogenized again as described above and saved overnight at −20° C. in order to obtain a complete recovery of aqueous phase from tissue. A second centrifugation was performed (20,690×g, for 10 min at 4° C.) and supernatants combined with those previously obtained were extracted by vigorous agitation with a double volume of HPLC-grade CHCl3 and centrifuged as above.

[1] = rats 2 days post-TBI, single 15 mg/kg b.w. 30 min after trauma
[2] = rats 7 days post-sTBI, repeated 15 mg/kg b.w.
[3] = rats 7 days post-sTBI, single 1 mg/kg b.w.
[4] = rats 7 days post-sTBI, single 5 mg/kg b.w.
[5] = rats 7 days post-sTBI, single 15 mg/kg b.w.

## sodium salt of dextran sulfate [LMW-DS]
[1]
  GUANOSINE concentration in brain homogenate: 24.35 ± 4.05 nmol/g w.w.
  HYPDXANTHINE concentration in brain homogenate: 6.82 ± 1.12 nmol/g w.w.
  INOSINE concentration in brain homogenate: 142.91 ± 18.63 nmol/g w.w.
  URACIL concentration in brain homogenate: 15.55 ± 3.04 nmol/g w.w.
  β-PSEUDOURIDINE concentration in brain homogenate: 7.84 ± 1.57 nmol/g w.w.
[2]
  ADENOSINE concentration in brain homogenate: 40.84 ± 30.25 nmol/g w.w.
  ADP-Ribose concentration in brain homogenate: 13.23 ± 3.32 nmol/g w.w.
  AMP concentration in brain homogenate: 43.12 ± 3.39 nmol/g w.w.
  Acetyl-CoA concentration in brain homogenate: 37.91 ± 6.46 nmol/g w.w.
  CMP concentration in brain homogenate: 31.21 ± 13.28 nmol/g w.w.
  CoA-SH concentration in brain homogenate: 45.76 ± 5.87 nmol/g w.w.
  GDP concentration in brain homogenate: 109.06 ± 12.46 nmol/g w.w.
  GUANINE concentration in brain homogenate: 3.32 ± 1.41 nmol/g w.w.
  GUANOSINE concentration in brain homogenate: 19.66 ± 4.10 nmol/g w.w.
  INOSINE concentration in brain homogenate: 139.26 ± 15.62 nmol/g w.w.
  Malonyl-CoA concentration in brain homogenate: 12.56 ± 2.27 nmol/g w.w.
  NADPH concentration in brain homogenate: 11.21 ± 2.60 nmol/g w.w.
  NO2 concentration in brain homogenate: 130.69 ± 28.31 nmol/g w.w.
  UDP-GIcNac concentration in brain homogenate: 86.42 ± 29.89 nmol/g w.w.
  UDP-Gal concentration in brain homogenate: 135.15 ± 9.29 nmol/g w.w.
  UDP-GalNac concentration in brain homogenate: 16.50 ± 4.73 nmol/g w.w.
  URACIL concentration in brain homogenate: 24.13 ± 4.96 nmol/g w.w.
  URIDINE concentration in brain homogenate: 97.21 ± 23.03 nmol/g w.w.
  XANTHINE concentration in brain homogenate: 11.24 ± 3.18 nmol/g w.w.
[3]
  ADP concentration in brain homogenate: 286.78 ±38.19 nmol/g w.w.
  AMP concentration in brain homogenate: 43.13 ± 3.39 nmol/g w.w.
  ASCORBIC ACID concentration in brain homogenate: 2177.22 ± 262.21 nmol/g w.w.
  CDP choline concentration in brain homogenate: 6.26 ± 2.01 nmol/g w.w.
  CMP concentration in brain homogenate: 25.41 ± 10.81 nmol/g w.w.
  CYTIDINE concentration in brain homogenate: 29.67 ± 10.44 nmol/g w.w.
  CYTOSINE concentration in brain homogenate: 16.03 ± 3.44 nmol/g w.w.
  GDP concentration in brain homogenate: 121.72 ± 13.91 nmol/g w.w.
  GMP concentration in brain homogenate: 113.06 ± 53.51 nmol/g w.w.
  GSH concentration in brain homogenate: 1627.30 ± 214.51 nmol/g w.w.
  GUANINE concentration in brain homogenate: 6.86 ± 2.92 nmol/g w.w.
  GUANOSINE concentration in brain homogenate: 19.11 ± 3.98 nmol/g w.w.
  NADH concentration in brain homogenate: 8.20 ± 1.41 nmol/g w.w.
  NAD^+ concentration in brain homogenate: 268.14 ± 37.97 nmol/g w.w.
  NO3 concentration in brain homogenate: 153.62 ± 26.24 nmol/g w.w.
  UDP-GIcNac concentration in brain homogenate: 85.36 ± 29.53 nmol/g w.w.
  UDP-Gal concentration in brain homogenate: 130.20 ± 8.95 nmol/g w.w.
  UDP-GalNac concentration in brain homogenate: 15.85 ± 4.54 nmol/g w.w.
  XANTHINE concentration in brain homogenate: 12.53 ± 3.54 nmol/g w.w.
[4]
  ADP concentration in brain homogenate: 289.27 ± 38.52 nmol/g w.w.
  AMP concentration in brain homogenate: 59.50 ± 4.68 nmol/g w.w.
  ASCORBIC ACID concentration in brain homogenate: 2195.87 ± 264.45 nmol/g w.w.
  CDP choline concentration in brain homogenate: 10.37 ± 3.33 nmol/g w.w.
  CYTIDINE concentration in brain homogenate: 26.51 ± 9.33 nmol/g w.w.
  CYTOSINE concentration in brain homogenate: 12.67 ± 2.72 nmol/g w.w.
  GMP concentration in brain homogenate: 101.42 ± 48.00 nmol/g w.w.
  GUANINE concentration in brain homogenate: 7.92 ± 3.37 nmol/g w.w.
  GUANOSINE concentration in brain homogenate: 33.42 ± 6.96 nmol/g w.w.
  NADH concentration in brain homogenate: 8.83 ± 1.26 nmol/g w.w.
  NADPH concentration in brain homogenate: 12.30 ± 2.86 nmol/g w.w.
  NADP^+ concentration in brain homogenate: 24.45 ± 8.97 nmol/g w.w.
  UDP concentration in brain homogenate: 44.19 ± 6.22 nmol/g w.w.
  UDP-GIcNac concentration in brain homogenate: 85.14 ± 29.45 nmol/g w.w.
  UDP-Gal concentration in brain homogenate: 132.66 ± 9.12 nmol/g w.w.
  UDP-Glc concentration in brain homogenate: 58.10 ± 11.81 nmol/g w.w.
  XANTHINE concentration in brain homogenate: 14.33 ± 4.05 nmol/g w.w.
[5]
  ADENOSINE concentration in brain homogenate: 55.95 ± 41.44 nmol/g w.w.
  ADP concentration in brain homogenate: 276.83 ± 36.87 nmol/g w.w.
  ADP-Ribose concentration in brain homogenate: 19.21 ± 4.82 nmol/g w.w.
  Acetyl-CoA concentration in brain homogenate: 38.60 ± 6.57 nmol/g w.w.
  CDP choline concentration in brain homogenate: 10.06 ± 3.23 nmol/g w.w.
  CYTIDINE concentration in brain homogenate: 33.06 ± 11.63 nmol/g w.w.
  CYTOSINE concentration in brain homogenate: 13.87 ± 2.98 nmol/g w.w.
  GDP concentration in brain homogenate: 122.07 ± 13.95 nmol/g w.w.
  GUANINE concentration in brain homogenate: 5.27 ± 2.24 nmol/g w.w.
  GUANOSINE concentration in brain homogenate: 20.91 ± 4.36 nmol/g w.w.
  NADP^+ concentration in brain homogenate: 23.75 ± 8.72 nmol/g w.w.
  NAD^+ concentration in brain homogenate: 491.52 ± 69.61 nmol/g w.w.
  NO3 concentration in brain homogenate: 161.99 ± 27.67 nmol/g w.w.
  UDP-Gal concentration in brain homogenate: 137.57 ± 9.46 nmol/g w.w.
  XANTHINE concentration in brain homogenate: 12.71 ± 3.60 nmol/g w.w.
